The source of these data is patent US5318776A, “Composition for preventing graying of the hair” (priority 1988, dated 1994).

Read-outs that look alike come from different tables or passages of the source.

The subject of one data set is grayed hair. In words: Half-Head technique application to scalp of men having grayed hair. In kind it is in vivo, men (40 to 60 years old). The protocol:
Then, the effects of preventing graying of the hair and restoring grayed hair to its natural color were evaluated by comparing the conditions of the portions observed before and after the application of Samples and the results obtained were listed in the following Table VIII. […]
Then, the effectiveness of the hair cream of the invention and that of Comp.

A short description of data set [1]: Stability: residual amount of test compound after standing at 30° C. for 3 months, liquid chromatography. Format: physicochemical. The protocol:
(§1) One month thereafter, regenerated hair was collected from a constant area and the rate (%) of generated grayed hair to all the number of hair collected was estimated. In addition, the aforementioned hair tonic type preparations were allowed to stand at 30° C. for 3 months and the residual amount of the test compounds therein was examined by liquid chromatography as well as the degree of change in smell was also evaluated by means of sensory test.
(§2) One month thereafter, regenerated hair was collected from a constant area and the rate (%) of generated grayed hair to all the number of hair collected was estimated. In addition, the aforementioned compositions were allowed to stand at 30° C. for 3 months and the residual amount of the test compounds therein was examined by liquid chromatography as well as the degree of change in smell was also evaluated by sensory test. […] In addition, the abbreviation P means the averaged added molar number of ethylene oxide residues.

The nature of data set [2]: Sensory test: degree of change in smell after standing at 30° C. for 3 months.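 For Stability S.E. (Sensory Evaluation): double circle means no smell deterioration on a four-grade scale.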 In kind it is physicochemical. The conditions noted are these: for Stability S.E. (Sensory Evaluation) / deterioration in smell (in words): 30° C., 3 months. The protocol: as §1, §2
Data set [3] has as its system grayed hair (melanocytes). As to the kind of experiment: Inhibition of generation of grayed hair in stressed black mice. Format: in vivo. Particulars: for Rate of Grayed Hair (%): 0.1 ml twice a day, 1 month. The protocol: It is known that stress is one of the causes of graying of the hair. […] Moreover, the stability of the composition with time was also estimated.
as §1, §2

The mark [4] stands for this setting: Examples 3 to 5, Half-Head, men, 3 months.
Where [5] appears, read: hair tonic, Table III, 0.1% in hair tonic, 30° C., 3 months, read-out: Stability Residue(%).
[6] abbreviates: Table III, 0.1% test compound in hair tonic, control 16.5.
Where [7] appears, read: Example 7, hair cream as in Example 5.
[8] abbreviates: Table V, 0.05% test compound in hair tonic, control 17.1.

In the case of `O=P1(O)OC[C@H]2O[C@@H](n3cnc4c3ncn3ccnc43)[C@H](O)[C@@H]2O1` [1,N^6 -etheno cAMP-K], the “effect of preventing graying of the hair and restoring grayed hair to its natural color (in words)” value (shortened to “effect of preventing graying … (in words)”) in the data set on grayed hair (setting [4]) was “remarkable effects of preventing graying of the hair and restoring grayed hair to its natural color”.

On to `O=P1(O)OC[C@H]2O[C@@H](n3cnc4c3ncn3ccnc43)[C@H](O)[C@@H]2O1` [1,N^6 -etheno cAMP], for which, in data set [1] (setting [5]), the remaining at 2190 h is 99.8%. Further, the “Stability S.E. (Sensory Evaluation)” value in data set [2] (Table III, 0.1% in hair tonic) is on record as “.circleincircle”. In addition, the “Rate of Grayed Hair (%)” value in data set [3] (setting [6]) amounted to 7.5%.

Regarding `CCCCn1cnc2c(ncn2[C@@H]2O[C@@H]3COP(=O)([O-])O[C@H]3[C@H]2O)c1=N.[Na+]` [1-butyl cAMP-Na], in data set [1] (Example 7, hair cream), the “stability (in words)” value is “stable”. For the same compound, the “quality deterioration such as giving out of bad smell” value (“quality deterioration such” for short) in data set [2] (Example 7, hair cream) is recorded as “did not cause quality deterioration such as giving out of bad smell”. The “effect of preventing graying … (in words)” value in the data set on grayed hair (setting [7]) is “the same effect of preventing graying of the hair and restoring grayed hair to its natural color as in Example 5”.

With `CCn1cnc2c(ncn2[C@@H]2O[C@@H]3COP(=O)([O-])O[C@H]3[C@H]2O)c1=N.[Na+]` [1-ethyl cAMP-Na], the “stability (in words)” value in data set [1] (Example 7, hair cream) was “stable”. Besides, in data set [2] (Example 7, hair cream), the “quality deterioration such” value is given as “did not cause quality deterioration such as giving out of bad smell”. In addition, the “effect of preventing graying … (in words)” value in the data set with grayed hair (setting [7]) is “the same effect of preventing graying of the hair and restoring grayed hair to its natural color as in Example 5”.

With `CCN(CC)CC.Cn1cnc2c(ncn2[C@@H]2O[C@@H]3COP(=O)(O)O[C@H]3[C@H]2O)c1=N` [1-methyl cAMP-triethylammonium], in the data set on grayed hair (setting [4]), the “effect of preventing graying … (in words)” value was “remarkable effects of preventing graying of the hair and restoring grayed hair to its natural color”.

For `Cn1cnc2c(ncn2[C@@H]2O[C@@H]3COP(=O)(O)O[C@H]3[C@H]2O)c1=N` [1-methyl cAMP], the “Stability Residue(%)” value in data set [1] (Table III, 0.1% in hair tonic, 30° C., 3 months, 131400 min) is recorded as 99.6%. Also, the “Stability S.E. (Sensory Evaluation)” value in data set [2] (Table III, 0.1% in hair tonic) is given as “.circleincircle”. In addition, the “Rate of Grayed Hair (%)” value in data set [3] (setting [6]) was 8.2%.

Turning to `CCCCCCCCn1cnc2c(ncn2[C@@H]2O[C@@H]3COP(=O)([O-])O[C@H]3[C@H]2O)c1=N.[Na+]` [1-octyl cAMP-Na], the “stability (in words)” value in data set [1] (Example 7, hair cream) was “stable”. Also, the “quality deterioration such” value in data set [2] (Example 7, hair cream) is reported as “did not cause quality deterioration such as giving out of bad smell”. The “effect of preventing graying … (in words)” value in the data set with grayed hair (setting [7]) was “the same effect of preventing graying of the hair and restoring grayed hair to its natural color as in Example 5”.

On to `Nc1ncnc2c1nc(Sc1ccc(Cl)cc1)n2[C@@H]1O[C@@H]2COP(=O)(O)O[C@H]2[C@H]1O` [8-4-chlorophenylthio cAMP-Na], for which the remaining at 2190 h in data set [1] (hair tonic, Table V, 0.05% in hair tonic, 30° C., 3 months, read-out: Stability Residue(%)) amounted to 99.9%. Besides, the “Stability S.E. (Sensory Evaluation)” value in data set [2] (Table V, 0.05% in hair tonic) is listed as “.circleincircle”. In addition, the “Rate of Grayed Hair (%)” value in data set [3] (setting [8]) is given as 6.0%.

With `Nc1ncnc2c1nc(SCc1ccccc1)n2[C@@H]1O[C@@H]2COP(=O)(O)O[C@H]2[C@H]1O` [8-benzylthio cAMP-Na], the “stability (in words)” value in data set [1] (Example 6, hair tonic) is given as “stable”. Besides, in data set [2] (Example 6, hair tonic), the “quality deterioration such” value is listed as “did not cause quality deterioration such as giving out of bad smell”. For the same compound, the “effect of preventing graying … (in words)” value in the data set with grayed hair (Example 6, hair tonic as in Example 3) was “the same effect of preventing graying of the hair and restoring grayed hair to its natural color as in Example 3”.

Turning to `Nc1ncnc2c1nc(SCc1ccccc1)n2[C@@H]1O[C@@H]2COP(=O)(O)O[C@H]2[C@H]1O` [8-benzylthio cAMP], the remaining at 2190 h in data set [1] (setting [5]) amounted to 100%. In data set [2] (Table III, 0.1% in hair tonic), the “Stability S.E. (Sensory Evaluation)” value is recorded as “.circleincircle”. Moreover, the “Rate of Grayed Hair (%)” value in data set [3] (setting [6]) amounted to 7.2%.

Take `Nc1ncnc2c1nc(Cl)n2[C@@H]1O[C@@H]2COP(=O)(O)O[C@H]2[C@H]1O` [8-chloro cAMP-Na]: the “stability (in words)” value in data set [1] (Example 7, hair cream) is reported as “stable”. For the same compound, the “quality deterioration such” value in data set [2] (Example 7, hair cream) was “did not cause quality deterioration such as giving out of bad smell”. The “effect of preventing graying … (in words)” value in the data set on grayed hair (setting [7]) is “the same effect of preventing graying of the hair and restoring grayed hair to its natural color as in Example 5”.

With `Nc1ncnc2c1nc(F)n2[C@@H]1O[C@@H]2COP(=O)(O)O[C@H]2[C@H]1O` [8-fluoro cAMP], the remaining at 2190 h in data set [1] (setting [5]) came out at 99.5%. Moreover, the “Stability S.E. (Sensory Evaluation)” value in data set [2] (Table III, 0.1% in hair tonic) is “.circleincircle”. Also, the “Rate of Grayed Hair (%)” value in data set [3] (setting [6]) stood at 7.6%.

Consider `COc1nc2c(N)ncnc2n1[C@@H]1O[C@@H]2COP(=O)(O)O[C@H]2[C@H]1O` [8-methoxy cAMP], for which, in data set [1] (setting [5]), the remaining at 2190 h stood at 99.7%. The “Stability S.E. (Sensory Evaluation)” value in data set [2] (Table III, 0.1% in hair tonic) is on record as “.circleincircle”. For the same compound, the “Rate of Grayed Hair (%)” value in data set [3] (setting [6]) worked out at 7.8%.

With `CNc1nc2c(N)ncnc2n1[C@@H]1O[C@@H]2COP(=O)(O)O[C@H]2[C@H]1O` [8-methylamino cAMP-Na], the “stability (in words)” value in data set [1] (Example 7, hair cream) is recorded as “stable”. Moreover, the “quality deterioration such” value in data set [2] (Example 7, hair cream) is reported as “did not cause quality deterioration such as giving out of bad smell”. For the same compound, the “effect of preventing graying … (in words)” value in the data set on grayed hair (setting [7]) was “the same effect of preventing graying of the hair and restoring grayed hair to its natural color as in Example 5”.

Consider `CSc1nc2c(N)ncnc2n1[C@@H]1O[C@@H]2COP(=O)(O)O[C@H]2[C@H]1O` [8-methylthio cAMP-Na], for which the “stability (in words)” value in data set [1] (Example 7, hair cream) is reported as “stable”. In data set [2] (Example 7, hair cream), the “quality deterioration such” value is given as “did not cause quality deterioration such as giving out of bad smell”. The “effect of preventing graying … (in words)” value in the data set on grayed hair (setting [7]) is “the same effect of preventing graying of the hair and restoring grayed hair to its natural color as in Example 5”.

Regarding `CSc1nc2c(N)ncnc2n1[C@@H]1O[C@@H]2COP(=O)(O)O[C@H]2[C@H]1O` [8-methylthio cAMP], the remaining at 2190 h in data set [1] (setting [5]) stood at 99.9%. For the same compound, the “Stability S.E. (Sensory Evaluation)” value in data set [2] (Table III, 0.1% in hair tonic) is “.circleincircle”. The “Rate of Grayed Hair (%)” value in data set [3] (setting [6]) came to 8.0%.

For `Nc1ncnc2c1nc(Sc1ccccc1)n2[C@@H]1O[C@@H]2COP(=O)(O)O[C@H]2[C@H]1O` [8-phenylthio cAMP], the remaining at 2190 h in data set [1] (setting [5]) turned out to be 100%. Moreover, the “Stability S.E. (Sensory Evaluation)” value in data set [2] (Table III, 0.1% in hair tonic) is “.circleincircle”. The “Rate of Grayed Hair (%)” value in data set [3] (setting [6]) stood at 7.1%.

In turn, `CCCC(=O)Nc1ncnc2c1ncn2[C@@H]1O[C@@H]2COP(=O)(O)O[C@H]2[C@H]1OC(=O)CCC` [N^6,O^2' -dibutyryl cAMP, reference compound] registered a remaining at 2190 h in data set [1] (hair tonic, Stability Residue(%)) of 86.4%. For the same compound, the “deterioration in smell (in words)” value in data set [2] (Example 1) is “high deterioration in smell”. Also, the “effect of inhibiting generation of grayed hair (in words)” value in data set [3] (Example 1, 0.1%) was “exhibits the grayed hair inhibitory effect”. In data set [3] (setting [6]), the “Rate of Grayed Hair (%)” value was 9.1%.

For `CCCC(=O)Nc1ncnc2c1ncn2[C@@H]1O[C@@H]2COP(=O)(O)O[C@H]2[C@H]1OC(=O)CCC` [N^6,O^2' -dibutyryl cAMP-Na, reference compound], the “Stability Residue(%)” value in data set [1] (hair tonic, 2190 h) turned out to be 84.5%. In addition, the “deterioration in smell (in words)” value in data set [2] (Example 2) was “substantial deterioration in smell”. Further, the “effect of inhibiting generation of grayed hair (in words)” value in data set [3] (Example 2, 0.05%) was “exhibits the aforementioned effect”. Further, the “Rate of Grayed Hair (%)” value in data set [3] (setting [8]) is 8.8%.
